Experimental data as given in patent US9428519B2, “Acylated derivative of homoharringtonine, preparation method therefor, and application thereof” (HANGZHOU BENSHENG PHARMACEUTICAL CO., LTD., priority 2011, dated 2016).
Converted amounts (≈) assume the structure as drawn.

Experiments:
[1] = tested on: NB4 (acute promyelocytic leukemia, AML); assay: MTT growth inhibition of leukemia cells, 72 h; assay type: cell-based, human; conditions: MTT
Procedure, shortened: (§1)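 Growth inhibition is scored by MTT after a 72 h exposure at 37 °C in 5% CO2, with cells plated at 6000 per well in RPMI 1640 containing 10% fetal bovine serum. IC50 comes from viability relative to untreated cells.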

[2] = tested on: Kasumi-1 (acute myeloid leukemia M2 type, AML-M2); assay: MTT growth inhibition of leukemia cells, 72 h; assay type: cell-based, human
Procedure, shortened: as §1

[3] = tested on: K562/adr (drug-resistant, chronic myeloid leukemia, CML); assay: MTT growth inhibition of leukemia cells, 72 h; assay type: cell-based, human; conditions: MTT
Procedure, shortened: as §1

[4] = tested on: H9 (acute lymphoblastic leukemia, ALL); assay: MTT growth inhibition of leukemia cells, 72 h; assay type: cell-based, human; conditions: MTT
Procedure, shortened: as §1

[5] = tested on: Jurkat (acute lymphoblastic leukemia, ALL); assay: MTT growth inhibition of leukemia cells, 72 h; assay type: cell-based, human
Procedure, shortened: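 Growth inhibition of the Jurkat ALL line was measured by MTT after 72 hours of compound exposure at 37° C. under 5% CO2. Wells of a 96-well plate held 6000 cells in 1640 medium plus 10% fetal bovine serum; untreated controls defined 100% viability, and inhibitory concentrations were derived from percent viability.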

[6] = tested on: Huh7 (human liver cancer cell); assay: MTT growth inhibition of human solid tumor cells, 72 h; assay type: cell-based
Procedure, shortened: (§2)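 First, 4000 tumour cells per well are plated in DMEM high glucose containing 10% fetal bovine serum and kept 24 h at 37° C. Next, test derivatives are mixed in at different concentrations for a further 72 h. Finally, MTT measures viable cells against an untreated 100% control.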

[7] = tested on: RKO (human colon adenocarcinoma cell); assay: as above; assay type: cell-based; conditions: MTT
Procedure, shortened: as §2

[8] = tested on: MG63 (osteosarcoma); assay: as above; assay type: cell-based
Procedure, shortened: as §2

[9] = tested on: A549 (human lung cancer); assay: as above; assay type: cell-based
Procedure, shortened: as §2

[10] = tested on: Hep-2 (laryngeal carcinoma); assay: as above; assay type: cell-based
Procedure, shortened: as §2

[11] = tested on: CaES-17 (esophageal cancer cell); assay: as above; assay type: cell-based
Procedure, shortened: as §2

[12] = tested on: PC-3 (prostate cancer); assay: as above; assay type: cell-based; conditions: MTT
Procedure, shortened: as §2

[13] = tested on: Becap37 (human breast cancer cell); assay: as above; assay type: cell-based
Procedure, shortened: as §2

[14] = tested on: U87 MG (malignant glioma cell); assay: as above; assay type: cell-based
Procedure, shortened: as §2

[15] = tested on: SK-OV-3 (ovarian cancer cell); assay: as above; assay type: cell-based
Procedure, shortened: as §2

[16] = tested on: MGC 803 (human gastric cancer cell); assay: as above; assay type: cell-based
Procedure, shortened: as §2

[17] = tested on: CNE (nasopharyngeal carcinoma cell); assay: as above; assay type: cell-based
Procedure, shortened: as §2

[18] = tested on: PANC-1 (pancreatic cancer); assay: as above; assay type: cell-based
Procedure, shortened: as §2

[19] = tested on: Hela (human cervical cancer cell); assay: as above; assay type: cell-based; conditions: MTT
Procedure, shortened: as §2

[20] = tested on: RPMI8226 (multiple myeloma); assay: MTT growth inhibition of multiple myeloma cells, 72 h; assay type: cell-based, human
Procedure, shortened: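 Growth inhibition read by MTT after 72 h compound exposure (37 °C, 5% CO2) of 6000 RPMI8226 cells per well in 1640 medium plus 10% fetal bovine serum. Viability expressed against untreated cells (100%), from which the 72 h IC50 was derived.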

SMILES: COC(=O)C[C@@](CCCC(C)(C)OC(=O)/C=C/c1ccco1)(OC(=O)/C=C/c1ccco1)C(=O)O[C@@H]1C(OC)=C[C@]23CCCN2CCc2cc4c(cc2[C@H]13)OCO4 [BS-HH-0022]
- IC50 NB4 [1]: 0.08 µg/mL (≈ 0.102 µM)
- IC90 NB4 [1]: 0.25 µg/mL (≈ 0.318 µM)
- IC50 Kasumi-1 ([2]; MTT): 0.063 µg/mL (≈ 0.0802 µM)
- IC90 Kasumi-1 ([2]; MTT): 0.22 µg/mL (≈ 0.28 µM)
- IC50 K562/adr [3]: 0.41 µg/mL (≈ 0.522 µM)
- IC90 K562/adr [3]: 1.84 µg/mL (≈ 2.34 µM)
- IC50 H9 [4]: 0.19 µg/mL (≈ 0.242 µM)
- IC90 H9 [4]: 0.4 µg/mL (≈ 0.509 µM)
- IC50 Jurkat [5]: 0.088 µg/mL (≈ 0.112 µM)
- IC90 Jurkat [5]: 10.13 µg/mL (≈ 12.9 µM)
- IC50 Huh7 [6]: 0.13 µg/mL (≈ 0.165 µM)
- IC90 Huh7 [6]: 0.99 µg/mL (≈ 1.26 µM)
- IC50 RKO [7]: 0.044 µg/mL (≈ 0.056 µM)
- IC90 RKO [7]: 0.35 µg/mL (≈ 0.445 µM)
- IC50 MG 63 ([8]; MTT): 0.24 µg/mL (≈ 0.305 µM)
- IC90 MG 63 ([8]; MTT): 3.25 µg/mL (≈ 4.14 µM)
- IC50 A549 [9]: 0.23 µg/mL (≈ 0.293 µM)
- IC90 A549 [9]: >16 µg/mL
- IC50 Hep-2 [10]: 0.22 µg/mL (≈ 0.28 µM)
- IC90 Hep-2 [10]: >16 µg/mL
- IC50 CaES-17 [11]: 0.61 µg/mL (≈ 0.776 µM)
- IC90 CaES-17 [11]: >16 µg/mL
- IC50 PC-3 [12]: 1.37 µg/mL (≈ 1.74 µM)
- IC90 PC-3 [12]: >16 µg/mL
- IC50 Becap37 [13]: 0.23 µg/mL (≈ 0.293 µM)
- IC90 Becap37 [13]: 11.14 µg/mL (≈ 14.2 µM)
- IC50 U87 MG [14]: 0.16 µg/mL (≈ 0.204 µM)
- IC90 U87 MG [14]: 0.59 µg/mL (≈ 0.751 µM)
- IC50 SK-OV-3 ([15]; MTT): 1.33 µg/mL (≈ 1.69 µM)
- IC90 SK-OV-3 ([15]; MTT): >16 µg/mL
- IC50 MGC 803 [16]: 0.16 µg/mL (≈ 0.204 µM)
- IC90 MGC 803 [16]: 0.76 µg/mL (≈ 0.967 µM)
- IC50 CNE ([17]; MTT): 0.21 µg/mL (≈ 0.267 µM)
- IC90 CNE ([17]; MTT): 16 µg/mL (≈ 20.4 µM)
- IC50 PANC-1 ([18]; MTT): 0.69 µg/mL (≈ 0.878 µM)
- IC90 PANC-1 ([18]; MTT): 15.56 µg/mL (≈ 19.8 µM)
- IC50 Hela [19]: 0.33 µg/mL (≈ 0.42 µM)
- IC90 Hela [19]: 9.38 µg/mL (≈ 11.9 µM)
- IC50 RPMI8226 ([20]; MTT): 0.12 µg/mL (≈ 0.153 µM)
- IC90 RPMI8226 ([20]; MTT): 0.63 µg/mL (≈ 0.802 µM)

SMILES: COC(=O)C[C@](O)(CCCC(C)(C)OC(=O)C1CCCC1)C(=O)O[C@@H]1C(OC)=C[C@]23CCCN2CCc2cc4c(cc2[C@H]13)OCO4 [BS-HH-077]
- IC50 ([1]; Homo sapiens): 0.009 µg/mL (≈ 0.014 µM)
- IC90 ([1]; Homo sapiens): 0.022 µg/mL (≈ 0.0343 µM)
- IC50 ([2]; Homo sapiens, Kasumi 1, MTT): 0.004 µg/mL (≈ 0.00623 µM)
- IC90 ([2]; Homo sapiens, Kasumi 1, MTT): 0.012 µg/mL (≈ 0.0187 µM)
- IC50 ([3]; Homo sapiens, K562/Adr): 0.01 µg/mL (≈ 0.0156 µM)
- IC90 ([3]; Homo sapiens, K562/Adr): 0.05 µg/mL (≈ 0.0779 µM)
- IC50 ([4]; Homo sapiens): 0.01 µg/mL (≈ 0.0156 µM)
- IC90 ([4]; Homo sapiens): 0.03 µg/mL (≈ 0.0467 µM)
- IC50 ([5]; Homo sapiens, Jurkat): 0.001 µg/mL (≈ 0.00156 µM)
- IC90 ([5]; Homo sapiens, Jurkat): 11.4 µg/mL (≈ 17.7 µM)
- IC50 ([6]; Homo sapiens, Huh-7): 0.016 µg/mL (≈ 0.0249 µM)
- IC90 ([6]; Homo sapiens, Huh-7): 0.36 µg/mL (≈ 0.561 µM)
- IC50 ([7]; Homo sapiens): 0.006 µg/mL (≈ 0.00935 µM)
- IC90 ([7]; Homo sapiens): 0.02 µg/mL (≈ 0.0312 µM)
- IC50 ([8]; Homo sapiens, MG-63, MTT): 0.021 µg/mL (≈ 0.0327 µM)
- IC90 ([8]; Homo sapiens, MG-63, MTT): 5.14 µg/mL (≈ 8.01 µM)
- IC50 ([9]; Homo sapiens, A549): 0.02 µg/mL (≈ 0.0312 µM)
- IC90 ([9]; Homo sapiens, A549): > 16 µg/mL
- IC50 ([10]; Homo sapiens, HEp-2): 0.007 µg/mL (≈ 0.0109 µM)
- IC90 ([10]; Homo sapiens, HEp-2): > 16 µg/mL
- IC50 ([11]; Homo sapiens, CaEs17): 0.031 µg/mL (≈ 0.0483 µM)
- IC90 ([11]; Homo sapiens, CaEs17): 16 µg/mL (≈ 24.9 µM)
- IC50 ([12]; Homo sapiens): 0.039 µg/mL (≈ 0.0608 µM)
- IC90 ([12]; Homo sapiens): > 16 µg/mL
- IC50 ([13]; Homo sapiens): 0.007 µg/mL (≈ 0.0109 µM)
- IC90 ([13]; Homo sapiens): 11.1 µg/mL (≈ 17.3 µM)
- IC50 ([14]; Homo sapiens, U-87 MG): 0.035 µg/mL (≈ 0.0545 µM)
- IC90 ([14]; Homo sapiens, U-87 MG): 0.16 µg/mL (≈ 0.249 µM)
- IC50 ([15]; Homo sapiens, SK-OV-3, MTT): 0.034 µg/mL (≈ 0.053 µM)
- IC90 ([15]; Homo sapiens, SK-OV-3, MTT): > 16 µg/mL
- IC50 ([16]; Homo sapiens, MGC-803): 0.021 µg/mL (≈ 0.0327 µM)
- IC90 ([16]; Homo sapiens, MGC-803): 0.087 µg/mL (≈ 0.136 µM)
- IC50 ([17]; Homo sapiens, MTT): 0.012 µg/mL (≈ 0.0187 µM)
- IC90 ([17]; Homo sapiens, MTT): > 16 µg/mL
- anti-CNE effect relative to homoharringtonine ([17]; vs HHT): more than 3 fold
- IC50 ([18]; Homo sapiens, PANC-1, MTT): 0.055 µg/mL (≈ 0.0857 µM)
- IC90 ([18]; Homo sapiens, PANC-1, MTT): > 16 µg/mL
- IC50 ([19]; Homo sapiens, HeLa): 0.014 µg/mL (≈ 0.0218 µM)
- IC90 ([19]; Homo sapiens, HeLa): 16 µg/mL (≈ 24.9 µM)
- IC50 ([20]; Homo sapiens, RPMI-8226, MTT): 0.004 µg/mL (≈ 0.00623 µM)
- IC90 ([20]; Homo sapiens, RPMI-8226, MTT): 0.024 µg/mL (≈ 0.0374 µM)
